Patent publication US9452980B2, “Substituted benzamides” (Hoffmann-La Roche Inc., priority 2009, dated 2016)
Counter-ions that a name gives are not always drawn. Like-named read-outs stand apart in the source and are kept apart here.

Columns and labels:
mouse TAAR1 = mouse TAAR1 (Mus musculus (Mouse), UniProt Q923Y8); assay: Radioligand binding assay on mouse TAAR1
Experimental: (§1) For the construction of expression plasmids the coding sequences of human, rat and mouse TAAR1 were amplified from genomic DNA essentially as described by Lindemann et al.. The Expand High Fidelity PCR System (Roche Diagnostics) was used with 1.5 mM Mg^2+ and purified PCR products were cloned into pCR2.1-TOPO cloning vector (Invitrogen) following the instructions of the manufacturer. PCR products were subcloned into the pIRESneo2 vector (BD Clontech, Palo Alto, Calif.), and expression vectors were sequence verified before introduction in cell lines.
(§2) HEK293 cells (ATCC #CRL-1573) were cultured essentially as described by Lindemann et al. (2005). For the generation of stably transfected cell lines HEK293 cells were transfected with the pIRESneo2 expression plasmids containing the TAAR coding sequences (described above) with Lipofectamine 2000 (Invitrogen) according to the instructions of the manufacturer, and 24 hrs post transfection the culture medium was supplemented with 1 mg/ml G418 (Sigma, Buchs, Switzerland). After a culture period of about 10 d clones were isolated, expanded and tested for responsiveness to trace amines (all compounds purchased from Sigma) with the cAMP Biotrak Enzyme immunoassay (EIA) System (Amersham) following the non-acetylation EIA procedure provided by the manufacturer.
Radioligand Binding Assay on Mouse TAAR1
(§3) Membrane Preparation and Radioligand Binding.
(§4) HEK-293 cells stably expressing mouse TAAR1 were maintained at 37° C. and 5% CO2 in DMEM high glucose medium, containing fetal calf serum (10%, heat inactivated for 30 min at 56° C.), penicillin/streptomycin (1%), and 375 μg/ml geneticin (Gibco). Cells were released from culture flasks using trypsin/EDTA, harvested, washed twice with ice-cold PBS (without Ca^2+ and Mg^2+), pelleted at 1,000 rpm for 5 min at 4° C., frozen and stored at −80° C. Frozen pellets were suspended in 20 ml HEPES-NaOH (20 mM, pH 7.4) containing 10 mM EDTA and homogenized with a Polytron (PT 6000, Kinematica) at 14,000 rpm for 20 s. The homogenate was centrifuged at 48,000×g for 30 min at 4° C. Subsequently, the supernatant was removed and discarded, and the pellet resuspended in 20 ml HEPES-NaOH (20 mM, pH 7.4) containing 0.1 mM EDTA using the Polytron (20 s at 14,000 rpm). This procedure was repeated and the final pellet resuspended in HEPES-NaOH containing 0.1 mM EDTA and homogenized using the Polytron. Typically, aliquots of 2 ml membrane portions were stored at −80° C. With each new membrane batch the dissociation constant (Kd) was determined via a saturation curve. […] Nonspecific binding was defined as the amount of ^3[H]—(S)-4-[(ethyl-phenyl-amino)-methyl]-4,5-dihydro-oxazol-2-ylamine bound in the presence of 10 μM unlabeled ligand. All compounds were tested at a broad range of concentrations (10 pM to 10 μM) in duplicates. […] The 96 deep well plates were incubated for 1 hr at 4° C. Incubations were terminated by rapid filtration through Unifilter-96 plates (Packard Instrument Company) and glass filters GF/C (Perkin Elmer) presoaked for 1 hr in polyethylenimine (0.3%) and washed 3 times with 1 ml of cold binding buffer. After addition of 45 μl of Microscint 40 (PerkinElmer) the Unifilter-96 plate was sealed and after 1 hr the ratioactivity counted using a TopCount Microplate Scintillation Counter (Packard Instrument Company).

rat TAAR1 = rat TAAR1 (Rattus norvegicus (Rat), UniProt Q923Y9); assay: Radioligand binding assay on rat TAAR1
Experimental: as §1, §2
Radioligand Binding Assay on Rat TAAR1
as §3
as §4, with “rat” for “mouse”

[1] = mouse TAAR1, HEK-293 membranes, first value of cell mouse/rat, read-out: Ki (μM) mouse
[2] = rat TAAR1, HEK-293 membranes, second value of cell mouse/rat, read-out: Ki (μM) rat

Sequence of rat TAAR1 (Q923Y9 whole entry): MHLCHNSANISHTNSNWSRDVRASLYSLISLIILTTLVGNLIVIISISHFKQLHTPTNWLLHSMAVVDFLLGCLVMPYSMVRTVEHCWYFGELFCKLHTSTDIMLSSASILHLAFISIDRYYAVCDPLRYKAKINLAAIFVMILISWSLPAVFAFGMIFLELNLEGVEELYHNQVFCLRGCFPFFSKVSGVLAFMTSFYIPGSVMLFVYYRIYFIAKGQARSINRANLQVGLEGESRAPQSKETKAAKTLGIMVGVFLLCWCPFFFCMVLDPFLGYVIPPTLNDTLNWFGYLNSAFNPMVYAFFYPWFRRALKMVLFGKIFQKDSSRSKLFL
Sequence of mouse TAAR1 (Q923Y8 whole entry): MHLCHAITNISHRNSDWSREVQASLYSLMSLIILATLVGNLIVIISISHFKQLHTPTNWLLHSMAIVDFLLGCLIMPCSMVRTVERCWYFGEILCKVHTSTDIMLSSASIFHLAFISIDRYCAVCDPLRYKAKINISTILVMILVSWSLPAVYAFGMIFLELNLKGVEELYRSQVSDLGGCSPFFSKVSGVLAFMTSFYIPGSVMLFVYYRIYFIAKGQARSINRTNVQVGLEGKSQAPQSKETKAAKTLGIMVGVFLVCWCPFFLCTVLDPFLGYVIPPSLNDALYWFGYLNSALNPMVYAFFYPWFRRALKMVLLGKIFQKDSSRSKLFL

SMILES	Ki (mouse TAAR1; [1]) [µM]	Ki (rat TAAR1; [2]) [µM]	Ki (rat TAAR1; read-out: Ki (μM) rat) [µM]	Ki (mouse TAAR1) [µM]	Ki (rat TAAR1) [µM]
CCCCc1ccc(NC(=O)Nc2ccc(C3CCNC3)cc2)c(C)c1 (racemic) [Example 1, (RS)-1-(4-Butyl-2-methyl-phenyl)-3-(4-pyrrolidin-3-yl-phenyl)-urea; hydrochloride]	0.0056	0.0072			
O=C(Nc1ccc(C2CCNC2)cc1)Nc1ccc(Cl)c(Cl)c1 (racemic) [Example 3, (RS)-1-(3,4-Dichloro-phenyl)-3-(4-pyrrolidin-3-yl-phenyl)-urea hydrochloride]	0.0013	0.0016			
O=C(Nc1ccc(Cl)cc1)Nc1ccc(C2CCNC2)cc1 (racemic) [Example 5, (RS)-1-(4-Chloro-phenyl)-3-(4-pyrrolidin-3-yl-phenyl)-urea hydrochloride]	0.0015	0.0027			
O=C(Nc1ccccc1)Nc1ccc(C2CCNC2)cc1 (racemic) [Example 6, (RS)-1-Phenyl-3-(4-pyrrolidin-3-yl-phenyl)-urea hydrochloride]	0.0032		0.0295		
O=C(Nc1ccc(C2CCNC2)cc1)Nc1ccc(Cl)cc1Cl (racemic) [Example 7, (RS)-1-(2,4-Dichloro-phenyl)-3-(4-pyrrolidin-3-yl-phenyl)-urea hydrochloride]	0.0028	0.0036			
O=C(Nc1ccc(C2CCNC2)cc1)Nc1cccc(Cl)c1 (racemic) [Example 8, (RS)-1-(3-Chloro-phenyl)-3-(4-pyrrolidin-3-yl-phenyl)-urea hydrochloride]	0.0015	0.0044			
O=C(Nc1ccc(C2CCNC2)cc1)Oc1ccccc1 (racemic) [Example 11, (RS)-(4-Pyrrolidin-3-yl-phenyl)-carbamic acid phenyl ester hydrochloride]				0.0065	0.0315
O=C(Nc1ccc(C2CCNC2)cc1)c1ccccc1 (racemic) [Example 13, (RS)—N-(4-Pyrrolidin-3-yl-phenyl)-benzamide hydrochloride]	0.008	0.0995			
O=C(Nc1ccc(C2CCNC2)cc1)Oc1ccc(F)cc1 (racemic) [Example 15, (RS)-(4-Pyrrolidin-3-yl-phenyl)-carbamic acid 4-fluoro-phenyl ester hydrochloride]				0.0021	0.0081
O=C(Nc1ccc(C2CCNC2)cc1)c1ccc(Cl)cc1 (racemic) [Example 16, (RS)-4-Chloro-N-(4-pyrrolidin-3-yl-phenyl)-benzamide hydrochloride]	0.0007	0.0043			
O=C(Cc1ccc(Cl)cc1)Nc1ccc(C2CCNC2)cc1 (racemic) [Example 17, (RS)-2-(4-Chloro-phenyl)-N-(4-pyrrolidin-3-yl-phenyl)-acetamide hydrochloride]	0.0083	0.0363			
O=C(Nc1ccc(C2CCNC2)cc1)c1ccc(C(F)(F)F)cc1 (racemic) [Example 18, (RS)—N-(4-Pyrrolidin-3-yl-phenyl)-4-trifluoromethyl-benzamide hydrochloride]	0.0011	0.0036			
O=C(Nc1ccc(C2CCNC2)cc1)c1ccc(Cl)cc1Cl (racemic) [Example 19, (RS)-2,4-Dichloro-N-(4-pyrrolidin-3-yl-phenyl)-benzamide hydrochloride]	0.0035	0.0189			
O=C(Nc1ccc(C2CCNC2)cc1)c1cccc(Cl)c1 (racemic) [Example 20, (RS)-3-Chloro-N-(4-pyrrolidin-3-yl-phenyl)-benzamide hydrochloride]	0.0005	0.0077			
CN(C(=O)Oc1ccccc1)c1ccc(C2CCNC2)cc1 (racemic) [Example 22, (RS)-Methyl-(4-pyrrolidin-3-yl-phenyl)-carbamic acid phenyl ester]				0.526	2.37
O=C(Nc1ccc(C2CCNC2)cc1)Oc1ccc(Cl)cc1 (racemic) [Example 23, (RS)-(4-Pyrrolidin-3-yl-phenyl)-carbamic acid 4-chloro-phenyl ester hydrochloride]				0.0022	0.0025
O=C(Nc1ccc(C2CCNC2)cc1)Nc1ccc(Cl)nc1 (racemic) [Example 26, (RS)-1-(6-Chloro-pyridin-3-yl)-3-(4-pyrrolidin-3-yl-phenyl)-urea hydrochloride]	0.0112	0.0279			
O=C(Nc1ccc(C2CCNC2)cc1)Nc1ccc(C(F)(F)F)cc1 (racemic) [Example 27, (RS)-1-(4-Pyrrolidin-3-yl-phenyl)-3-(4-trifluoromethyl-phenyl)-urea hydrochloride]	0.0013	0.0015			
CN1CCC(c2ccc(NC(=O)c3ccc(Cl)cc3)cc2)C1 (racemic) [Example 32, (RS)-4-Chloro-N-[4-(1-methyl-pyrrolidin-3-yl)-phenyl]-benzamide]	0.0005	0.0858			
O=C(Nc1ccc(C2CCN(Cc3ccccc3)C2)cc1)c1ccc(Cl)cc1 (racemic) [Example 34, (RS)—N-[4-(1-Benzyl-pyrrolidin-3-yl)-phenyl]-4-chloro-benzamide]	0.0269	0.214			
CCC(C(=O)Nc1ccc(C2CCNC2)cc1)c1ccccc1 (racemic) [Example 38, (RS)-2-Phenyl-N—((RS)-4-pyrrolidin-3-yl-phenyl)-butyramide]	0.0407	0.0606			
O=C(Nc1ccc(OC2CCNC2)cc1)c1ccc(Cl)cc1 (racemic) [Example 39, (RS)-4-Chloro-N-[4-(pyrrolidin-3-yloxy)-phenyl]-benzamide hydrochloride]	0.0007	0.0139			
O=C(Nc1ccc(C2CCNC2)cc1)c1ccc(Cl)cn1 (racemic) [Example 42, (RS)-5-Chloro-pyridine-2-carboxylic acid (4-pyrrolidin-3-yl-phenyl)-amide hydrochloride]	0.0033	0.0354			
O=C(Nc1ccc(C2CCNC2)cc1)c1ccc(Cl)nc1 (racemic) [Example 43, (RS)-6-Chloro-pyridine-3-carboxylic acid (4-pyrrolidin-3-yl-phenyl)-amide hydrochloride]	0.0041	0.0242			
O=C(Nc1ccc(C2CCNC2)cc1)Nc1ccc(Cl)cn1 (racemic) [Example 44, (RS)-1-(5-Chloro-pyridin-2-yl)-3-(4-pyrrolidin-3-yl-phenyl)-urea hydrochloride]	0.0013	0.0022			
